Test results reported in US8597649B2, “Antagonist antibodies directed against calcitonin gene-related peptide and methods using same” (Labrys Biologics, Inc., priority 2005, dated 2013).

How the values were obtained:
[1] = test system: middle meningeal artery (MMA) dilation evoked by electrical field stimulation; experiment: Dural artery (closed cranial window) assay; format: in vivo; details: rat, i.v.
Procedure: Closed Cranial Window Model: The purpose of this experiment was to determine the acute effect of anti-CGRP antagonist antibodies and compare it with the acute effect of the CGRP receptor antagonist BIBN4096BS. Experiments were carried out as previously described (Williamson et al., Cephalalgia 17(4):518-24 (1997)) with the following modifications. Sprague Dawley rats (300-400 g) were anesthetized with 70 mg/kg i.p. pentobarbital. Anesthesia was maintained with 20 mg/kg/hr i.v. pentobarbital. Rats were cannulated through the jugular vein for delivery of all drugs. Blood pressure was monitored with a probe (mikro-tip catheter, Millar Instruments) threaded through the femoral artery into the abdominal aorta. The rats were tracheotomized and breathing rate was maintained at 75 breaths per minute at a volume of 3.5 mL. After fixating the head in a stereotactic instrument and removing the scalp, a 2×6 mm window in the left parietal area just lateral to the sagittal suture was made by thinning the bone with a dental drill. […] Lateral to the electrode window another window of 5×6 mm was created and filled with heavy mineral oil through which the diameter of a branch of the middle meningeal artery (MMA) was continuously monitored with a CCD camera and a video dimension analyzer (Living Systems). […] All data was recorded using chart software (ADInstruments). […]

[2] = test system: skin vasodilatation induced by stimulation of rat saphenous nerve; experiment: skin vasodilatation induced by stimulation of rat saphenous nerve; format: in vivo; details: 400 nmol/kg i.v., 3-5 min before stimulation, compared to the control (FIG. 2A, 2B)
Procedure: To test antagonist activity of anti-CGRP antibodies, effect of the antibodies on skin vasodilatation by stimulation of rat saphenous nerve was tested using a rat model described previously. Escott et al., Br. J. Pharmacol. 110:772-776, 1993. In this rat model, electrical stimulation of saphenous nerve induces release of CGRP from nerve endings, resulting in an increase in skin blood flow. Blood flow in the foot skin of male Sprague Dwaley rats (170-300 g, from Charles River Hollister) was measured after saphenous nerve stimulation. Rats were maintained under anesthesia with 2% isoflurane. Bretylium tosylate (30 mg/kg, administered i.v.) was given at the beginning of the experiment to minimize vasoconstriction due to the concomitant stimulation of sympathetic fibers of the saphenous nerve. Body temperature was maintained at 37° C. by the use of a rectal probe thermostatically connected to a temperature controlled heating pad. […]
For experiments shown in FIGS. […] Skin blood flow, measured as blood cell flux, was monitored with a laser Doppler flow meter. […]
For experiments shown in FIGS. 4A and 4B, saphenous nerve was exposed surgically before antibody administration. […] Skin blood flow, measured as blood cell flux, was monitored with a laser Doppler flow meter. […]

Compound | time after dosing by which the effect has completely disappeared ([1]; 300 μg/kg BIBN4096BS (FIG. 9)) [min] | block of MMA dilation evoked by electrical field stimulation ([1]; acute, 10 mg/kg mu7E9, 300 μg/kg BIBN4096BS (FIG. 9)) | blood flow increase stimulated by applying electronic pulses on saphenous nerve [2]
NCCCC[C@H](NC(=O)[C@@H](Cc1cc(Br)c(O)c(Br)c1)NC(=O)N1CCC(N2Cc3ccccc3NC2=O)CC1)C(=O)N1CCN(c2ccncc2)CC1 [BIBN4096BS] | ≤ 90 | blocks | 
CGRP 8-37: Positive control compound CGRP 8-37 (vasodilatation antagonist) (VTHRLAGLLSRSGGVVKNNFVPTNVGSKAF) [reference compound] |  |  | inhibited
